Source: patent US20240360165A1, “INHIBITORS OF CYCLIN DEPENDENT KINASE 7 (CDK7)” (Syros Pharmaceuticals, Inc., priority 2016, published 2024)
Read-outs that look alike come from different tables or passages of the source.

Tests used:
[1] = molecular target: CDK7/Cyclin H/MAT1 complex (Homo sapiens, UniProt P50613); assay: CDK7 inhibition assay (Caliper/LabChip EZ Reader kinase assay); type: biochemical; details: Table 1; CDK7/Cyclin H/MAT1 6 nM, ATP 2 mM, 35 min at 27° C.
Experimental: (§1) Compounds of the invention were assayed for inhibition of CDK7, CDK9, CDK12, and CDK2 activity at Biortus Biosciences (Jiangyin, Jiangsu Province, P.R. of China) using kinase assays for each CDK developed with a Caliper/LabChip EZ Reader (Perkin Elmer, Waltham, MA).
(§2) Furthermore, the CDK9 inhibition assay used CDK9/Cyclin T1 complex (8 nM) and “5-FAM-CDK9tide” peptide substrate (2 μM, synthesized fluorophore-labeled peptide with the following sequence: 5-FAM-GSRTPMY-NH2 where 5-FAM is defined above and NH2 signifies a C-terminal amide) with 10 mM MgCl2 in the buffer composition listed above. […] Additionally, the CDK2 inhibition assay used CDK2/Cyclin E1 complex (0.5 nM) and “5-FAM-CDK7tide” ([…]) as defined above, with 2 mM MgCl2 in the buffer composition listed above.

CDK9/Cyclin T1 complex = CDK9/Cyclin T1 complex (Homo sapiens, UniProt P50750); assay: CDK9 inhibition assay (Caliper/LabChip EZ Reader kinase assay); type: biochemical; details: Table 1; CDK9/Cyclin T1 8 nM, ATP 2 mM, 15 min at 27° C.
Chain of CDK9/Cyclin T1 complex (P50750 whole entry, species assumed): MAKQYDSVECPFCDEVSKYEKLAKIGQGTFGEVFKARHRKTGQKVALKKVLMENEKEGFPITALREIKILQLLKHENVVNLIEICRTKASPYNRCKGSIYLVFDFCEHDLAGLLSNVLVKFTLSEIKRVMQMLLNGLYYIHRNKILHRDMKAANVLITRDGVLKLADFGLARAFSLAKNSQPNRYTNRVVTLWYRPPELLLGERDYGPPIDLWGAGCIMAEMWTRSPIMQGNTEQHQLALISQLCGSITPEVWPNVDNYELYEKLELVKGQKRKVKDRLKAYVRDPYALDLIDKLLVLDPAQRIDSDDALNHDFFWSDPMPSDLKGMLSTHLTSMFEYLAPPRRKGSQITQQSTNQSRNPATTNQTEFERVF
Chain of CDK9/Cyclin T1 complex (O60563 whole entry partner, species assumed): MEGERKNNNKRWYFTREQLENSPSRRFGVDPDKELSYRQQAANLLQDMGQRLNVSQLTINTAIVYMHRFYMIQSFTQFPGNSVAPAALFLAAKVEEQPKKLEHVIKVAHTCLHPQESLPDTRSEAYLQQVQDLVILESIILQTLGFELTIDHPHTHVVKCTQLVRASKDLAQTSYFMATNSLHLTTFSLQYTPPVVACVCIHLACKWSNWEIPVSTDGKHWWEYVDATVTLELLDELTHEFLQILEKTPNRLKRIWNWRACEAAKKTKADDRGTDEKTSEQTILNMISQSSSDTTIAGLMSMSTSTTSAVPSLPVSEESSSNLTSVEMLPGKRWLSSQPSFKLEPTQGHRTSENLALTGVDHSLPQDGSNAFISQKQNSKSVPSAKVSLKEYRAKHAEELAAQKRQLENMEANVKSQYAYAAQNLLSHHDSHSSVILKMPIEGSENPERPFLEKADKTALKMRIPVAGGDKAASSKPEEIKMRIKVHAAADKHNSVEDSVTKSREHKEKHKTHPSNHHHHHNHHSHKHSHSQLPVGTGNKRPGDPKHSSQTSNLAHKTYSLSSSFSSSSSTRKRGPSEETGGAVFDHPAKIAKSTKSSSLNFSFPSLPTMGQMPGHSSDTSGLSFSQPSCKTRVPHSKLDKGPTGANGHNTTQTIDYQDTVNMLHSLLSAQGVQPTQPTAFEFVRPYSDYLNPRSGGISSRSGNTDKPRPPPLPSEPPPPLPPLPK
Experimental: as §1, §2

[2] = molecular target: T1, CDK12 (aa686-1082)/Cyclin K complex (Homo sapiens, UniProt Q9NYV4); assay: CDK12 inhibition assay (Caliper/LabChip EZ Reader kinase assay); type: biochemical; details: Table 1; CDK12 (aa686-1082)/Cyclin K 50 nM, ATP 2 mM, 3 hr at 27° C.
T1 construct: CDK12 (aa686-1082)/Cyclin K complex
T1 sequence (Q9NYV4 686-1082, species assumed): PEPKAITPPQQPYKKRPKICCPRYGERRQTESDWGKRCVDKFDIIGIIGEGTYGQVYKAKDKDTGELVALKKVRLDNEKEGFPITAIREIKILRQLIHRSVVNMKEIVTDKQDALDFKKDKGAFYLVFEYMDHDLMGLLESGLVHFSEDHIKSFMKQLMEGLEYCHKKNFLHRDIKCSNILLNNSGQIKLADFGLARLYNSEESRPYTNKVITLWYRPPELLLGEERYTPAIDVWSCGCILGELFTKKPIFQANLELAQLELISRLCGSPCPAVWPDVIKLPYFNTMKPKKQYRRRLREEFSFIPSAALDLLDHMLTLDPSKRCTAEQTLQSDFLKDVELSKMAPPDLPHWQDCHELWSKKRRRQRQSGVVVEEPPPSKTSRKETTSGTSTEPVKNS
T1 sequence (O75909 whole entry partner, species assumed, the tested form may be a part): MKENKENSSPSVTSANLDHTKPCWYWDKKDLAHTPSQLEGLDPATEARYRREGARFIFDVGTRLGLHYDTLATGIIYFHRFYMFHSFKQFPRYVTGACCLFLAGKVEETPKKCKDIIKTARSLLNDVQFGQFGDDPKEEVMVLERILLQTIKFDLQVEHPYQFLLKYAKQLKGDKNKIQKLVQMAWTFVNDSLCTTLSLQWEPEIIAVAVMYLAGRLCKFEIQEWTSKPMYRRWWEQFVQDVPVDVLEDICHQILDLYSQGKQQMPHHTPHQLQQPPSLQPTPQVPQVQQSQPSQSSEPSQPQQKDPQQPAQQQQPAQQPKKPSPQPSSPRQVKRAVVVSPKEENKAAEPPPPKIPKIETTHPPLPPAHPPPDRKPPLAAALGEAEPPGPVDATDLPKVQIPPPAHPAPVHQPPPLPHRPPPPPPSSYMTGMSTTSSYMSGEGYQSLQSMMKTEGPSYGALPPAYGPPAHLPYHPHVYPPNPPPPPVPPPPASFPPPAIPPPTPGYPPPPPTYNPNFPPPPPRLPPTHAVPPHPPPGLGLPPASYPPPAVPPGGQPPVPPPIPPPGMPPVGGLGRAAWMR
Experimental: as §1, §2

CDK2/Cyclin E1 complex = CDK2/Cyclin E1 complex (Homo sapiens, UniProt P24941); assay: CDK2 inhibition assay (Caliper/LabChip EZ Reader kinase assay); type: biochemical; details: Table 1; CDK2/Cyclin E1 0.5 nM, ATP 2 mM, 35 min at 27° C.
Experimental: as §1, §2

A673 cells = assay: Inhibition of proliferation of A673 cells (CyQUANT, 72 hour); type: cell-based, human; details: A673 cells, 72 hour, CyQUANT, read-out: Inhibition of Proliferation of A673 Cells (calculated IC50)
Experimental: A673 cells are a cell line derived from human […] Ewing's sarcoma. Representative compounds of the invention were tested at different concentrations (from […]; 0.5 log serial dilutions) for their ability to inhibit the proliferation of A673 cells. Known CDK inhibitors dinaciclib or N-((1S,3R)-3-((5-chloro-4-(1H-indol-3-yl)pyrimidin-2-yl)amino)cyclohexyl)-5-((E)-4-(dimethylamino)but-2-enamido)picolinamide and triptolide were used as positive controls. Cells were grown in Dulbecco's Modified Eagle's Medium, +10% FBS+1 mM Sodium Pyruvate. The cells were cultured at 37° C. in a humidified chamber in the presence of 5% CO2. Proliferation assays were conducted over a 72 hour time period. CyQUANT® (Life Technologies, Chicago, IL USA) was used to assess the anti-proliferative effects of the compounds following manufacturer's directions and utilizing the reagents supplied with the CyQUANT® kit.

Chain of CDK7/Cyclin H/MAT1 complex (P50613 whole entry, species assumed): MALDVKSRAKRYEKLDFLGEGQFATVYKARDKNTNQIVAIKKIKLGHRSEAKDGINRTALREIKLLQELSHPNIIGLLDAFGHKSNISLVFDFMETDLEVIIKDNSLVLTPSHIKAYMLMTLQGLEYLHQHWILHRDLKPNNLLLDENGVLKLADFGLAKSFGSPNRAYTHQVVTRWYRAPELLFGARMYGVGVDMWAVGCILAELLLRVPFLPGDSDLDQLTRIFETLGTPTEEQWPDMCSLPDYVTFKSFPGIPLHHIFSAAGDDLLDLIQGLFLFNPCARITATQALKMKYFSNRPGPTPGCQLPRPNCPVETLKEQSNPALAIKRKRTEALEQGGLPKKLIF
Chain of CDK7/Cyclin H/MAT1 complex (P51946 whole entry partner, species assumed): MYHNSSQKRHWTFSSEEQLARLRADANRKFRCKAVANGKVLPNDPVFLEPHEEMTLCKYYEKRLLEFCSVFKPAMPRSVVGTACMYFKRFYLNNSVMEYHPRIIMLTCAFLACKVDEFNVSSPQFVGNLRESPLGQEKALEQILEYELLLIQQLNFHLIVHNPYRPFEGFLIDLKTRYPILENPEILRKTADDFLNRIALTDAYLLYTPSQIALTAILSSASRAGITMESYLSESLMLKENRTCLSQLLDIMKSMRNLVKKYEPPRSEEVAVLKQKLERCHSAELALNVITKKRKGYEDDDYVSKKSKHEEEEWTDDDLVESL
Chain of CDK7/Cyclin H/MAT1 complex (P51948 whole entry partner, species assumed): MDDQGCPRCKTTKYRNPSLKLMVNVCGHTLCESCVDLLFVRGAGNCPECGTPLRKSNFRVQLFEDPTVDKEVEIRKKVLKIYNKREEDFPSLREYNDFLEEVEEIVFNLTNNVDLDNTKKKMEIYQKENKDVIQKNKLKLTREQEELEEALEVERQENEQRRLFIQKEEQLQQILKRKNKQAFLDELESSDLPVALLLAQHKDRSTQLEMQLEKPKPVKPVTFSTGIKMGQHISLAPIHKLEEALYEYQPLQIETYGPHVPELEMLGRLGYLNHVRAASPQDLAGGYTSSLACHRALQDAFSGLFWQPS

Row | SMILES | IC50 [1] | IC50 (CDK9/Cyclin T1 complex) | IC50 [2] | IC50 (CDK2/Cyclin E1 complex) | IC50 (A673 cells) | IC50 (A673 cells; Homo sapiens, A673, 72 h) | IC50 (A673 cells; Homo sapiens)
1 | Brc1cnc(NC2CCCNC2)nc1-c1c[nH]c2ccccc12 (stereo in doubt) [Compound 133] | < 0.02 µM | 0.2 to 5 µM | 0.02 to 0.2 µM | 0.02 to 0.2 µM |  | < 0.02 µM | 
2 | Fc1cc2[nH]cc(-c3nc(N[C@H]4CCCNC4)ncc3Cl)c2cc1F [Compound 111] | < 0.02 µM | 0.02 to 0.2 µM | 0.02 to 0.2 µM | 0.2 to 5 µM |  | 0.02 to 0.2 µM | 
3 | Clc1cnc(N[C@@H]2CN3CCC2CC3)nc1-c1c[nH]c2ccccc12 [Compound 131, (S)—N-(5-chloro-4-(1H-indol-3-yl)pyrimidin-2-yl)quinuclidin-3-amine] | > 5 µM | > 5 µM | > 5 µM | > 5 µM |  | 0.2 to 5 µM | 
4 | Clc1cnc(N[C@H]2CN3CCC2CC3)nc1-c1c[nH]c2ccccc12 [Compound 134] | > 5 µM | > 5 µM | > 5 µM | > 5 µM | 0.2 to 5 µM |  | 
5 | c1ccc2c(-c3nc(N[C@H]4CCCNC4)ncc3C3CC3)c[nH]c2c1 [Compound 135] | 0.02 to 0.2 µM | > 5 µM | > 5 µM | > 5 µM |  | 0.2 to 5 µM | 
6 | CN1CCC[C@H](Nc2ncc(Cl)c(-c3c[nH]c4ccccc34)n2)C1 [Compound 136] | < 0.02 µM | 0.2 to 5 µM | 0.2 to 5 µM | 0.2 to 5 µM |  | 0.02 to 0.2 µM | 
7 | CCc1cnc(N[C@H]2CCCNC2)nc1-c1n[nH]c2c(F)cccc12 [Compound 143, (S)-5-ethyl-4-(7-fluoro-1H-indazol-3-yl)-N-(piperidin-3-yl)pyrimidin-2-amine] | < 0.02 µM | 0.2 to 5 µM | 0.2 to 5 µM | 0.2 to 5 µM |  | < 0.02 µM | 
8 | CC(C)CN1CCC[C@H](Nc2ncc(Cl)c(-c3c[nH]c4ccccc34)n2)C1 [Compound 145] | 0.02 to 0.2 µM | > 5 µM | 0.2 to 5 µM | > 5 µM |  | 0.2 to 5 µM | 
9 | Ic1cnc(N[C@H]2CCCNC2)nc1-c1c[nH]c2ccccc12 [Compound 147] | < 0.02 µM | 0.2 to 5 µM | 0.2 to 5 µM | 0.02 to 0.2 µM | < 0.02 µM |  | 
10 | CCOP(=O)(OCC)c1cccc2c(-c3nc(N[C@H]4CCCNC4)ncc3C(F)(F)F)c[nH]c12 [Compound 168] | 0.2 to 5 µM | > 5 µM | > 5 µM | > 5 µM |  |  | 0.2 to 5 µM
11 | CCOP(C)(=O)c1cccc2c(-c3nc(N[C@H]4CCCNC4)ncc3C(F)(F)F)c[nH]c12 (stereo partly drawn) [Compound 179] | < 0.02 µM | 0.2 to 5 µM | 0.2 to 5 µM | 0.2 to 5 µM |  |  | < 0.02 µM
12 | COc1cnc(N[C@H]2CCCNC2)nc1-c1c[nH]c2ccccc12 [Compound 189] | 0.2 to 5 µM | > 5 µM | > 5 µM | > 5 µM | 0.2 to 5 µM |  | 
13 | CC(C)(O)CCc1cccc2c(-c3nc(N[C@H]4CCCNC4)ncc3C(F)(F)F)c[nH]c12 [Compound 191] | < 0.02 µM | 0.2 to 5 µM | 0.2 to 5 µM | 0.2 to 5 µM | < 0.02 µM |  | 
14 | OC1CC=C(c2cccc3c(-c4nc(N[C@H]5CCCNC5)ncc4C(F)(F)F)c[nH]c23)CC1 (stereo partly drawn) [Compound 198] | < 0.02 µM | 0.2 to 5 µM | 0.2 to 5 µM | 0.2 to 5 µM | < 0.02 µM |  | 

Second part, led by results:

Row | IC50 [1] | IC50 (CDK9/Cyclin T1 complex) | IC50 [2] | IC50 (CDK2/Cyclin E1 complex) | SMILES | IC50 (A673 cells) | IC50 (A673 cells; Homo sapiens, A673, 72 h) | IC50 (A673 cells; Homo sapiens)
15 | < 0.02 µM | 0.2 to 5 µM | 0.02 to 0.2 µM | 0.02 to 0.2 µM | CNC(=O)C1CNCC(Nc2ncc(C(F)(F)F)c(-c3c[nH]c4ccccc34)n2)C1 (single isomer, unassigned) [Compound 253] | 0.02 to 0.2 µM |  | 
16 | < 0.02 µM | 0.2 to 5 µM | 0.2 to 5 µM | 0.2 to 5 µM | CCC(=O)N[C@@H]1CNC[C@H](Nc2ncc(C(F)(F)F)c(-c3c[nH]c4c(S(C)(=O)=O)cccc34)n2)C1 (single isomer, unassigned) [Compound 259] |  | 0.02 to 0.2 µM | 
17 | 0.02 to 0.2 µM | 0.2 to 5 µM | 0.2 to 5 µM | > 5 µM | CC(C)N1CCC[C@H](Nc2ncc(Cl)c(-c3c[nH]c4ccccc34)n2)C1 [Compound 148] |  | 0.02 to 0.2 µM | 
18 | 0.02 to 0.2 µM | 0.2 to 5 µM | 0.2 to 5 µM | 0.2 to 5 µM | COCCN1CCC[C@H](Nc2ncc(Cl)c(-c3c[nH]c4ccccc34)n2)C1 [Compound 149] | 0.02 to 0.2 µM |  | 
19 | < 0.02 µM | 0.2 to 5 µM | 0.2 to 5 µM | 0.2 to 5 µM | N#Cc1cnc(N[C@H]2CCCNC2)nc1-c1c[nH]c2ccccc12 [Compound 157] |  | < 0.02 µM | 
20 | < 0.02 µM | 0.2 to 5 µM | 0.2 to 5 µM | 0.2 to 5 µM | Cc1nn(C)cc1-c1cccc2c(-c3nc(N[C@H]4CCCNC4)ncc3C(F)(F)F)c[nH]c12 [Compound 171] |  | < 0.02 µM | 
21 | < 0.02 µM | 0.2 to 5 µM | 0.2 to 5 µM | 0.2 to 5 µM | Cc1cn(-c2cccc3c(-c4nc(N[C@H]5CCCNC5)ncc4C(F)(F)F)c[nH]c23)cn1 [Compound 172] |  | < 0.02 µM | 
22 | < 0.02 µM | 0.02 to 0.2 µM | 0.02 to 0.2 µM | 0.02 to 0.2 µM | Fc1cc2[nH]cc(-c3nc(N[C@H]4CCCNC4)ncc3C(F)(F)F)c2cc1F [Compound 184] | < 0.02 µM |  | 
23 | < 0.02 µM | 0.2 to 5 µM | 0.2 to 5 µM | 0.2 to 5 µM | C#Cc1cnc(N[C@H]2CCCNC2)nc1-c1c[nH]c2ccccc12 [Compound 194] |  | < 0.02 µM | 
24 | 0.2 to 5 µM | > 5 µM | > 5 µM | > 5 µM | C#Cc1cnc(N[C@H]2CCCNC2)nc1-c1cn(C)c2ccccc12 [Compound 195] | 0.02 to 0.2 µM |  | 
25 | < 0.02 µM | 0.2 to 5 µM | 0.2 to 5 µM | 0.2 to 5 µM | O=S1(=O)CCN(c2cccc3c(-c4nc(N[C@H]5CCCNC5)ncc4Cl)c[nH]c23)CC1 [Compound 196, 5-chloro-4-[7-(1,1-dioxo-1,4-thiazinan-4-yl)-1H-indol-3-yl]-N-[(3S)-3-piperidyl]pyrimidin-2-amine] |  | 0.02 to 0.2 µM | 
26 | < 0.02 µM | 0.2 to 5 µM | 0.2 to 5 µM | 0.2 to 5 µM | N#Cc1cc2[nH]cc(-c3nc(N[C@H]4CCCNC4)ncc3C(F)(F)F)c2cc1F [Compound 197, 5-fluoro-3-[2-[[(3S)-3-piperidyl]amino]-5-(trifluoromethyl)pyrimidin-4-yl]-1H-indole-6-carbonitrile] |  | < 0.02 µM | 
27 | < 0.02 µM | 0.2 to 5 µM | 0.2 to 5 µM | 0.2 to 5 µM | CNS(=O)(=O)c1ccc2c(-c3nc(N[C@H]4CCCNC4)ncc3C(F)(F)F)c[nH]c2c1 [Compound 200, N-methyl-3-[2-[[(3S)-3-piperidyl]amino]-5-(trifluoromethyl)pyrimidin-4-yl]-1H-indole-6-sulfonamide] |  | 0.02 to 0.2 µM | 
28 | < 0.02 µM | 0.2 to 5 µM | 0.02 to 0.2 µM | 0.2 to 5 µM | C[C@H]1CNC[C@@H](Nc2ncc(Cl)c(-c3c[nH]c4ccccc34)n2)C1 [Compound 201, 5-chloro-4-(1H-indol-3-yl)-N-[(3S,5R)-5-methyl-3-piperidyl]pyrimidin-2-amine] |  | < 0.02 µM | 
29 | < 0.02 µM | 0.2 to 5 µM | > 5 µM | 0.2 to 5 µM | FC(F)(F)c1cnc(N[C@H]2CCCNC2)nc1-c1c[nH]c2cc(-c3ncc[nH]3)ccc12 [Compound 202, 4-[6-(1H-imidazol-2-yl)-1H-indol-3-yl]-N-[(3S)-3-piperidyl]-5-(trifluoromethyl) pyrimidin-2-amine] |  | 0.02 to 0.2 µM | 
30 | < 0.02 µM | 0.2 to 5 µM | 0.2 to 5 µM | 0.2 to 5 µM | O[C@H]1CNC[C@@H](Nc2ncc(C(F)(F)F)c(-c3c[nH]c4ccccc34)n2)C1 [Compound 203, (3R,5S)-5-[[4-(1H-indol-3-yl)-5-(trifluoromethyl)pyrimidin-2-yl]amino]piperidin-3-ol] |  | < 0.02 µM | 
